From patent US20020061836A1, “Methods for altering SXR activation using peptide mimetic HIV protease inhibitor SXR ligands” (priority 2000, published 2002)
Where two headings read alike, the source gives them in different places. One block for each compound: values may come before it.

Tests used:
[1] = target: T1, human SXR ligand binding domain (Homo sapiens, UniProt O75469); assay: Gal-L-SXR (Gal-SXR) Gal4 reporter transient transfection assay in CV-1 cells; conditions: CV-1 cells; for activation of Gal-L-SXR chimeric receptor: 10 μM compound (LG268 100 nM), about 24 h
T1 sequence (O75469 107-434 limits assumed): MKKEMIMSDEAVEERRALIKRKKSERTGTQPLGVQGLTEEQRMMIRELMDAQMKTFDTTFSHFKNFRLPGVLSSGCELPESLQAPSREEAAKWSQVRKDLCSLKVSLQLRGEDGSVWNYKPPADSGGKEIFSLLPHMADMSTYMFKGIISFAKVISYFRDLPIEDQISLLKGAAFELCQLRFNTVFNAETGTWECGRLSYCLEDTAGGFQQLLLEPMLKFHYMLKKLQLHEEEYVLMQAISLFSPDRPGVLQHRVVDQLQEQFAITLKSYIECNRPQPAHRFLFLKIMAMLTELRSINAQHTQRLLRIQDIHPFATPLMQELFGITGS
Source text: Use of a standard model heterologous cell system to reconstitute SXR agonist and antagonist responsiveness allows SXR activity to be monitored in the absence of the metabolic events which may obscure the process being tested. Any suitable heterologous cell system may be used to test the activation of potential or known SXR nuclear receptor ligands, as long as the cells are capable of being transiently transfected with the appropriate DNA which expresses receptors, reporter genes, response elements, and the like. Cells which constitutively express one or more of the necessary genes may be used as well. Cell systems that are suitable for the transient expression of mammalian genes and which are amenable to maintenance in culture are well known to those skilled in the art. […] Suitable reporter gene constructs are well known to skilled workers in the fields of biochemistry and molecular biology. Activity of the reporter gene can be conveniently normalized to the internal control and the data plotted as fold activation relative to untreated cells.
(§1) The Gal4 reporter activity was normalized to the internal β-galactosidase control and the data plotted as fold activation relative to untreated cells. All transfections contained the Gal4 reporter and a β-galactosidase expression vector as an internal control.
(§2) Izbicka et al., Ann. Oncol.
(§3) Gal-PXR containing the ligand binding domain of mouse PXR (#AF031814) was obtained from Bruce Blumberg.
Transient Transffection Assays—CV-1 cells were grown and transfected as described.

mouse PXR = mouse PXR (Mus musculus, UniProt O54915); conditions: 10 μM
mouse PXR, sequence (O54915 143-430 limits assumed): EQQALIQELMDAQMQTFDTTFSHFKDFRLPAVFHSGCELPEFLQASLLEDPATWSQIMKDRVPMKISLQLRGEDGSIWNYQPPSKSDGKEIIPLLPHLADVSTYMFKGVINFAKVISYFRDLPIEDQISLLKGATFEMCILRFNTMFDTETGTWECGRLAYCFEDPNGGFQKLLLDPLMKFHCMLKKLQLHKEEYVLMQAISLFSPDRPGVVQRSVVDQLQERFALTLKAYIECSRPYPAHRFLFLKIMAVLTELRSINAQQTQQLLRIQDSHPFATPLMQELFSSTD
Procedure: as §3
(§4) After 24 hour exposure to the compounds, total RNA was prepared and analyzed by northern analysis using probes for MRP2 and the GAPDH control. […] CV-1 cells were transiently transfected with a Gal4 reporter and a vector expressing Gal4-fused to the ligand binding domain of human SXR (Gal-SXR).
CV-1 cells were transiently transfected with Gal-SXR as in FIG. 21 above. […] Fold activation was determined relative to untreated cells. […] CV-1 cells were transiently transfected with Gal-PXR as in FIG. 21 above. […] FIG. 26: Coactivator recruitment by various HIV protease inhibitors SXR. […] Specific binding was measured as described in the Materials and Methods. Error bars indicate the range of duplicate data points.

[2] = test system: LS180 human colon cancer cells; assay: [14C]-paclitaxel efflux from pretreated LS180 cells; assay type: cell-based; conditions: LS180 cells induced 48 hours with 10 μM paclitaxel, 10 μM docetaxel or 100 nM LG268
Procedure: Taxane-induced drug efflux was measured using pretreated LS180 human colon cancer cells. The rate of drug efflux was measured. […] Individual data points are the means of triplicate determinations, error bars represent standard deviation and the lines are lines of regression. The slope of each line (rate of efflux) was compared to the slope obtained in the control (untreated) cells using an analysis of covariance. […] The entire experiment was performed three times with similar results. […] The cells were then incubated in media supplemented with 10 μM [^14C]-paclitaxel (4.9 μCi/umol, Moravek Biochemicals, Brea, Calif.) for 15 minutes. The uptake of ^14C-paclitaxel reached maximum levels at 10-12 minutes (data not shown). After 15 minutes, the cells were then rapidly centrifuged through silicone oil to remove all traces of extracellular radioactivity, resuspended in fresh media, and cell counts determined. At multiple time points over the next 10 minutes, triplicate aliquots of the cell suspension (approx. 1×10^5 cells/aliquot) were again centrifuged through silicon oil and the radioactivity in the cell pellet measured by quench-corrected liquid scintillation counting. The rate of [^14C]-paclitaxel efflux was determined as the slope of the [^14C]-paclitaxel versus time plots using all data. The slope for each inducer was compared to the slope obtained in the control (untreated) cells using an analysis of covariance.

mouse PPARα = target: T2, mouse PPARα (Mus musculus, UniProt P23204); assay: Nuclear receptor specificity transfection assay; assay type: cell-based
T2 construct: expressed in transfected cells; host or cells: CV-1
T2 sequence (P23204 1-468): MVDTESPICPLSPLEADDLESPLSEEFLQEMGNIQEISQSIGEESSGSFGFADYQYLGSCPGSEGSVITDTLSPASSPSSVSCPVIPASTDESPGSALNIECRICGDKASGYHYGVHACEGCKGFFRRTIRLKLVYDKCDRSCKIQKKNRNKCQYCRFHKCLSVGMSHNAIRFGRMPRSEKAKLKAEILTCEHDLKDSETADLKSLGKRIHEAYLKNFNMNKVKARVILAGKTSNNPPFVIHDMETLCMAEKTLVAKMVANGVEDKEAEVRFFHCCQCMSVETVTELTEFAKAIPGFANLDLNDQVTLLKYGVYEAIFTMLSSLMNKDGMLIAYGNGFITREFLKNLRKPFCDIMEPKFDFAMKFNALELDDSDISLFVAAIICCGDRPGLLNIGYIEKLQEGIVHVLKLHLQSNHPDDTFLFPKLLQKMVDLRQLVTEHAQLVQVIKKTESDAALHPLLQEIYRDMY

mouse CARβ = target: T3, mouse CARβ (Mus musculus, UniProt O35627); assay: Nuclear receptor specificity transfection assay / LXRE×3-TK-luc reporter with CARβ in CV-1 cells; assay type: cell-based
T3 sequence (O35627 1-358): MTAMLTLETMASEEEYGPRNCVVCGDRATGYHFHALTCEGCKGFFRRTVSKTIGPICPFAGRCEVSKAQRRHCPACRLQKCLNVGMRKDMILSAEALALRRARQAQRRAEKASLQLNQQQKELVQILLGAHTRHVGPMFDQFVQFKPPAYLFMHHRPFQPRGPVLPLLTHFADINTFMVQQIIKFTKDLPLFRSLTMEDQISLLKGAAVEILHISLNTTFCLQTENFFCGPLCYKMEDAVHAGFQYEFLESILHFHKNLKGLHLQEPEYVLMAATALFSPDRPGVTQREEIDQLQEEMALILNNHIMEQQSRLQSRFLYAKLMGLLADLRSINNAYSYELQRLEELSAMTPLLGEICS

mouse PPARδ = target: T4, mouse PPARδ (Mus musculus, UniProt P35396); assay: Nuclear receptor specificity transfection assay; assay type: cell-based
T4 construct: expressed in transfected cells; host or cells: CV-1
T4 sequence (P35396 1-440): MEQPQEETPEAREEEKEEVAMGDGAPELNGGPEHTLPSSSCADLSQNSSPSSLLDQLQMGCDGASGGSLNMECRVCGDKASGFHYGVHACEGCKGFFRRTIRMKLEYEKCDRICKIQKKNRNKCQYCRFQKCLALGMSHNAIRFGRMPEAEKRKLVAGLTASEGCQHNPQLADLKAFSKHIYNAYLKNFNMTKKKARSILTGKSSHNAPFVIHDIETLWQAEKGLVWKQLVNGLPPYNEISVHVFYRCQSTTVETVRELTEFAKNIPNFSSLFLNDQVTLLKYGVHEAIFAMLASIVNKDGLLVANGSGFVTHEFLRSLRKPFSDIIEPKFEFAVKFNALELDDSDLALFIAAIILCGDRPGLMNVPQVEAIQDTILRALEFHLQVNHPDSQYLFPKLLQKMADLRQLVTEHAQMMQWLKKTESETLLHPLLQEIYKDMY

human LXRα = target: T5, human LXRα (Homo sapiens, UniProt Q13133); assay: Nuclear receptor specificity transfection assay; assay type: cell-based
T5 construct: expressed in transfected cells; host or cells: CV-1
T5 sequence (Q13133 1-447): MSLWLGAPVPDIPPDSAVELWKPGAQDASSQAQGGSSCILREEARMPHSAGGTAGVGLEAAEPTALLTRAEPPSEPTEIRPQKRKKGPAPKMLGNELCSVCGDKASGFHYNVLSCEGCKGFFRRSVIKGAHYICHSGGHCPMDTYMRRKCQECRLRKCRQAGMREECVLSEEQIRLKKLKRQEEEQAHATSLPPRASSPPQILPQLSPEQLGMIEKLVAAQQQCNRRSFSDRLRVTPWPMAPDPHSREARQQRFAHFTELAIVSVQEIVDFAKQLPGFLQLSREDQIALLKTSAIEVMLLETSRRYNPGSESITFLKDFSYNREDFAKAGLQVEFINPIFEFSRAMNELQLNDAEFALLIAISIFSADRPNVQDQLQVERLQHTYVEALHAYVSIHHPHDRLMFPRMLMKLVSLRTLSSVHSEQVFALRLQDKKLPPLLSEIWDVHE

human RARα = target: T6, human RARα (Homo sapiens, UniProt P10276); assay: Nuclear receptor specificity transfection assay; assay type: cell-based; conditions: 3 μM ritonavir
T6 construct: expressed in transfected cells; host or cells: CV-1
T6 sequence (P10276 whole entry): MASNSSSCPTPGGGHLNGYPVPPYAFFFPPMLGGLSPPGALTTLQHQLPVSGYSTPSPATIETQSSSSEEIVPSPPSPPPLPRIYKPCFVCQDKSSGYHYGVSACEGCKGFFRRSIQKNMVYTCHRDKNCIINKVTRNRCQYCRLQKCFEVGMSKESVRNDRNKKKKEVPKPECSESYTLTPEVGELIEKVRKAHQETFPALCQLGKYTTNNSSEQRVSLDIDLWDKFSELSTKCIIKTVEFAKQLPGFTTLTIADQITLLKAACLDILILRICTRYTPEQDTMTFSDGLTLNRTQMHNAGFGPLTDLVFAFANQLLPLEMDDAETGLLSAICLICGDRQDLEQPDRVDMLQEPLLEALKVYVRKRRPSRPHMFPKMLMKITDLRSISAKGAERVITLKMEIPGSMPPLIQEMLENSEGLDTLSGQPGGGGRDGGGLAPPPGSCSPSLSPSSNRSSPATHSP

MDR1 mRNA = assay: Northern analysis of MDR1 expression in human LS180 cells; assay type: cell-based; conditions: 3 μM ritonavir, 24 hour
Procedure: as §2
(§5) Northern Blot Analysis—Primary human hepatocytes were obtained from Clonetics (Walkersville, Md.) and cultured according to the vendors instructions. Cells were treated with the indicated compounds for 24 hours and total RNA was isolated using the Trizol reagent.
(§6) After 24 hour exposure to the compounds, total RNA was prepared and analyzed by northern analysis using probes for MDR1 and the GAPDH control.

[3] = target: T7, human RXRα ligand binding domain (Homo sapiens, UniProt P19793); assay: Gal-L-RXR Gal4 reporter transient transfection assay in CV-1 cells; assay type: cell-based
T7 construct: expressed in transfected cells; host or cells: CV-1
T7 sequence (P19793 203-462): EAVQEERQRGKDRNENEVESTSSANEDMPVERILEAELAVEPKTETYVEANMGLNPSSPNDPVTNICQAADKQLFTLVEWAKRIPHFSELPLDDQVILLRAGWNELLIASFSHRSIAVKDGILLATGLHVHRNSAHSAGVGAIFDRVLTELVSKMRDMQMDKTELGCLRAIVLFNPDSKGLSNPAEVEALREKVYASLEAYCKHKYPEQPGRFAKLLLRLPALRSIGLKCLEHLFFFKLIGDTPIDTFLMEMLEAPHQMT
Source text: as §1

mouse PPARγ = target: T8, mouse PPARγ (Mus musculus, UniProt P37238); assay: Nuclear receptor specificity transfection assay; assay type: cell-based; conditions: 3 μM ritonavir
T8 construct: expressed in transfected cells; host or cells: CV-1
T8 sequence (P37238 whole entry): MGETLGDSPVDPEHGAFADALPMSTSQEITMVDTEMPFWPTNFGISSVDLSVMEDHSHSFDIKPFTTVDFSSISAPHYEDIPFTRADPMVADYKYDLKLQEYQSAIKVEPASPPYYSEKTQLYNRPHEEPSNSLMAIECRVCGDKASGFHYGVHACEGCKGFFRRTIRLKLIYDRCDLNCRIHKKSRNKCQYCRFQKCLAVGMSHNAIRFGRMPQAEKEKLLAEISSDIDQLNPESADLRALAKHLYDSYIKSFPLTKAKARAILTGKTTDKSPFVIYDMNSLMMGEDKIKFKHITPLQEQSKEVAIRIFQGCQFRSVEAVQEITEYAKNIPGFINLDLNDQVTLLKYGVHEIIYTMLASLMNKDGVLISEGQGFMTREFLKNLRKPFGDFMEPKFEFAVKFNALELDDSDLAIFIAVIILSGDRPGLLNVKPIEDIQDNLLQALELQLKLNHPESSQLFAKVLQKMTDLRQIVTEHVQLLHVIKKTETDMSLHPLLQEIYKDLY

MRP2 mRNA = assay: Northern analysis of MRP2 expression in primary human hepatocytes; assay type: cell-based
Procedure: as §5, §4, §6

FXR = target: T9, FXR (Homo sapiens, UniProt Q96RI1); assay: Nuclear receptor specificity transfection assay; assay type: cell-based; conditions: 3 μM ritonavir
T9 construct: expressed in transfected cells; host or cells: CV-1
T9 sequence (Q96RI1 whole entry, species assumed): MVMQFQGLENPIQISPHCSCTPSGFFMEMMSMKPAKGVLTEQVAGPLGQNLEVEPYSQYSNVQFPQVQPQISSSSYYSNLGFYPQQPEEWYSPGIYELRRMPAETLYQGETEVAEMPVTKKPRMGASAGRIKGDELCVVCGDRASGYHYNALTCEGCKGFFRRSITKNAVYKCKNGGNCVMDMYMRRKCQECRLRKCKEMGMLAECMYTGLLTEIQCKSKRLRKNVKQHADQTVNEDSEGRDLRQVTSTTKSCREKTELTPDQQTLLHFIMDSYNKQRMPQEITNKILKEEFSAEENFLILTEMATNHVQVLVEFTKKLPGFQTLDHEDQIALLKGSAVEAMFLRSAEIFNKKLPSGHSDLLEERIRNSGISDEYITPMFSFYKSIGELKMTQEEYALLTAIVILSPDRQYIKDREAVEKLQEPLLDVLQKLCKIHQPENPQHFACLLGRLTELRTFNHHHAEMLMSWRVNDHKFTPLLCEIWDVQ

human ERα = human ERα (Homo sapiens, UniProt P03372); conditions: 3 μM ritonavir
human ERα, sequence (P03372 whole entry): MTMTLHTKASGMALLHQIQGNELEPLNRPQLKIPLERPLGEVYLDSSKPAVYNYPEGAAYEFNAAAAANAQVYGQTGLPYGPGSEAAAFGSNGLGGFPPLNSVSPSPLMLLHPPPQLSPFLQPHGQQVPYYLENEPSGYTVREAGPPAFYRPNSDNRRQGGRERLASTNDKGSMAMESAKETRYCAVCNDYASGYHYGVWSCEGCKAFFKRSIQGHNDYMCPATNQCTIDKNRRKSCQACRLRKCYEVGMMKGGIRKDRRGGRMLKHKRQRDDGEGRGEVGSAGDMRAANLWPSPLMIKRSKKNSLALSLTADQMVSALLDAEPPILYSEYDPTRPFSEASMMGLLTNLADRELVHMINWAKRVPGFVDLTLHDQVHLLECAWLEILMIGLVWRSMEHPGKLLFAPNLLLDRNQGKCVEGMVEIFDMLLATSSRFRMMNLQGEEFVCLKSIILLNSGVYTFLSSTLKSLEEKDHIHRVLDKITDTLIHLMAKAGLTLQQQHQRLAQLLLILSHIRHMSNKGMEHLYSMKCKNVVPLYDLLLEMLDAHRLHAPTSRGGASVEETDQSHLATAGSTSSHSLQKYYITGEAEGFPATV

[4] = test system: thyroid hormone receptor β (TRβ); conditions: 3 μM ritonavir

Compound: CC(=O)[C@H]1[C@H](C#N)C[C@H]2[C@@H]3CC=C4C[C@@H](O)CC[C@]4(C)[C@H]3CC[C@@]21C
activation of Gal-SXR ([1]; 2.5 μM hyperforin, 10 μM rifampicin, 3 μM ritonavir, 10 μM PCN): not | activation of Gal-L-SXR chimeric receptor [1]: not | fold activation by cognate ligand (positive control) (mouse PXR): 23 fold

Compound: CC(=O)O[C@H]1C(=O)[C@@]2(C)[C@H]([C@H](OC(=O)c3ccccc3)[C@]3(O)C[C@H](OC(=O)[C@H](O)[C@@H](NC(=O)c4ccccc4)c4ccc(O)cc4)C(C)=C1C3(C)C)[C@]1(OC(C)=O)CO[C@@H]1C[C@@H]2O [3′-p-hydroxypaclitaxel]
activation of Gal-L-SXR chimeric receptor [1]: No activation

Compound: CC(=O)O[C@H]1C(=O)[C@@]2(C)[C@H]([C@H](OC(=O)c3ccccc3)[C@]3(O)C[C@H](OC(=O)[C@H](O)[C@@H](NC(=O)c4ccccc4)c4ccccc4)C(C)=C1C3(C)C)[C@]1(OC(C)=O)CO[C@@H]1[C@@H](O)[C@@H]2O [6α-hydroxypaclitaxel]
activation of Gal-L-SXR chimeric receptor [1]: No activation

Compound: Cc1cc2c(cc1C1(c3ccc(C(=O)O)cn3)CC1)C(C)(C)CCC2(C)C [LG268]
rate of [14C]-paclitaxel efflux versus untreated cells [2]: did not differ from controls

fold activation by cognate ligand (positive control) (mouse PPARα; 5 μM): 13 fold
Compound: Cc1cccc(Nc2cc(Cl)nc(SCC(=O)O)n2)c1C [Wy 14,643]

Compound: C[C@@]12CCC[C@H]1[C@@H]1CC[C@H]3C[C@@H](O)CC[C@]3(C)[C@H]1CC2 [androstanol]
fold repression by cognate ligand (positive control) (mouse CARβ; 5 μM): 50 fold | effect on transcriptional activity of CARβ (mouse CARβ; LXRE×3-TK-luc reporter, 5 μM androstanol or 50 nM ET-743): inhibited

fold activation by cognate ligand (positive control) (mouse PPARδ; 1 μM): 14 fold
Compound: CCCCC[C@H](O)/C=C/[C@@H]1[C@H]2C/C(=C/CCCC(=O)O)C[C@H]2C[C@H]1O [arbaprostacyclin]

Compound: COC(=O)CC[C@@H](C)[C@H]1CC[C@H]2[C@@H]3C[C@H](O)[C@@H]4C[C@H](O)CC[C@]4(C)[C@H]3CC[C@]12C [hyodeoxycholic acid methyl ester]
fold activation by cognate ligand (positive control) (human LXRα; 30 μM): 4.5 fold

Compound: CC(C)c1nc(CN(C)C(=O)N[C@H](C(=O)N[C@@H](Cc2ccccc2)C[C@H](O)[C@H](Cc2ccccc2)NC(=O)OCc2cncs2)C(C)C)cs1 [ritonavir]
effect on retinoic acid receptor α reporter activity (human RARα): no effect | MDR1 mRNA expression (MDR1 mRNA): strongly induced | effect on RXRα reporter activity ([3]; 3 μM ritonavir): no effect | activation of Gal-RXR ([3]; ritonavir dose response, same doses as for SXR): failed to activate | effect on PPARδ reporter activity (mouse PPARδ; 3 μM ritonavir): no effect | effect on PPARα reporter activity (mouse PPARα; 3 μM ritonavir): no effect | effect on PPARγ reporter activity (mouse PPARγ): no effect | effect on CARβ reporter activity (mouse CARβ; 3 μM ritonavir): no effect | MRP2 mRNA expression (MRP2 mRNA; primary human hepatocytes, 3 μM ritonavir, 24 hour): activated expression | effect on FXR reporter activity (FXR): no effect | effect on LXRα reporter activity (human LXRα; 3 μM ritonavir): no effect | effect on estrogen receptor α reporter activity (human ERα): no effect | effect on thyroid hormone receptor β reporter activity [4]: no effect

Compound: hyperforin
MRP2 mRNA expression (MRP2 mRNA): induced expression
